Source: US20100144710A1, “Piperazine and Piperidine MGLUR5 Potentiators” (ASTRAZENECA AB, priority 2007, published 2010)

Each compound was assayed against T1, human mGluR5d (Homo sapiens, UniProt P41594) (assay: intracellular calcium [Ca2+]i mobilization (FLIPR) functional assay in cells expressing mGluR5). Settings: potentiators of mGluR5; 'assays described herein', assay not specified (FLIPR or IP3 turnover).
T1 construct: expressed in transfected cells
Format: cell-based
Source text: The pharmacological properties of the compounds of the invention can be analyzed using standard assays for functional activity. Examples of glutamate receptor assays are well known in the art as described in for example Aramori et al., Neuron 8:757 (1992), Tanabe et al., Neuron 8:169 (1992), Miller et al., J. Neuroscience 15: 6103 (1995), Balazs, et al., J. Neurochemistry 69:151 (1997). The methodology described in these publications is incorporated herein by reference. Conveniently, the compounds of the invention can be studied by means of an assay that measures the mobilization of intracellular calcium, [Ca^2+]i in cells expressing mGluR5.
Intracellular calcium mobilization was measured by detecting changes in fluorescence of cells loaded with the fluorescent indicator fluo-3. Fluorescent signals were measured using the FLIPR system (Molecular Devices). A two addition experiment was used that could detect compounds that either activate or antagonize the receptor.
For FLIPR analysis, cells expressing human mGluR5d were seeded on collagen coated clear bottom 96-well plates with black sides and analysis of [Ca^2+]i mobilization was done 24 hours after seeding.
FLIPR experiments were performed using a laser setting of 0.800 W and a 0.4 second CCD camera shutter speed. Each FLIPR experiment was initiated with 160 μL of buffer present in each well of the cell plate. After each addition of the compound, the fluorescence signal was sampled 50 times at 1 second intervals followed by 3 samples at 5 second intervals. Responses were measured as the peak height of the response within the sample period.
EC50 and IC50 determinations were made from data obtained from 8-point concentration response curves (CRC) performed in duplicate. Agonist CRC were generated by scaling all responses to the maximal response observed for the plate. Antagonist block of the agonist challenge was normalized to the average response of the agonist challenge in 14 control wells on the same plate.

T1 sequence (P41594 21-942 isoform P41594-3 limits assumed): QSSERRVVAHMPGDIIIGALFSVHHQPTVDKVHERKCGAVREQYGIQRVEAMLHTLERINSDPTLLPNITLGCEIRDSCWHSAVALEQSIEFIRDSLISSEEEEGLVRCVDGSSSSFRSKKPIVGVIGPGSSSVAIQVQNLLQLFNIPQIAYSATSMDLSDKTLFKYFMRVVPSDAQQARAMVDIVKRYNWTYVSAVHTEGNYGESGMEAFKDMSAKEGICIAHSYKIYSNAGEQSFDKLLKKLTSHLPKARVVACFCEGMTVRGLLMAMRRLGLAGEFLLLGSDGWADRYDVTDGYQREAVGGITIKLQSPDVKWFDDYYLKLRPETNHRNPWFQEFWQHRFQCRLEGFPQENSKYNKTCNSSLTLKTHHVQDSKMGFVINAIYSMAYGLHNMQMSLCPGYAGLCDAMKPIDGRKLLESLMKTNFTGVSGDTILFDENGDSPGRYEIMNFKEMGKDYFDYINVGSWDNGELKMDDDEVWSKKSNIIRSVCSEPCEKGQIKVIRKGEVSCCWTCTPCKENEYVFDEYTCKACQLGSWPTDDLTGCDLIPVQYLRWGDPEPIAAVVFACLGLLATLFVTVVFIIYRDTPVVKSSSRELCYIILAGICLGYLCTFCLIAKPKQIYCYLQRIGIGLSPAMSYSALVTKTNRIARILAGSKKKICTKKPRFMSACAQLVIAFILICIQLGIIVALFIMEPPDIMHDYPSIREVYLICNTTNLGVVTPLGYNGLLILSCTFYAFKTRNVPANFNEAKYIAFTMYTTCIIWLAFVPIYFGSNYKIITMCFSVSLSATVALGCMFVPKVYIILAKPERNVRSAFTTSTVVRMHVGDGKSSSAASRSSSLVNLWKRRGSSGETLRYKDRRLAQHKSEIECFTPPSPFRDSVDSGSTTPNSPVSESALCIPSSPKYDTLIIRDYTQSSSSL

Row | EC50 [µM] | SMILES
1 | 3.5 | N#Cc1cccnc1N1CCN(C(=O)COc2ccccc2)CC1 [Compound 12, 2-[4-(2-Phenoxy-acetyl)-piperazin-1-yl]-nicotinonitrile]
2 | 2.8 | CCCOc1ccc(CC(=O)N2CCN(c3ncccc3C#N)CC2)cc1 [Compound 16, 2-{4-[2-(4-Propoxy-phenyl)-acetyl]-piperazin-1-yl}-nicotinonitrile]
3 | 5.6 | CCCCc1ccc(N(CC(=O)N2CCN(c3nccnc3C#N)CC2)S(C)(=O)=O)cc1 [Compound 44, N-(4-Butyl-phenyl)-N-{2-(3′-cyano-2,3,5,6-tetrahydro-[1,2]bipyrazinyl-4-yl)-2-oxo-ethyl]-methanesulfonamide]
4 | 3.4 | N#Cc1cccnc1N1CCN(C(=O)Cc2ccc(OCc3ccccn3)cc2)CC1 [Compound 45, 2-(4-{2-[4′-(Pyridin-2-ylmethoxy)-phenyl]-acetyl}-piperazin-1-yl)-nicotinonitrile]

Row | SMILES | EC50 [µM]
5 | CCCCOc1ccc(CC(=O)N2CCN(c3ncccc3C#N)CC2)cc1 [Compound 1, 2-{4-[2-(4-Butoxy-phenyl)-acetyl]-piperazin-l-yl}-nicotinonitrile] | 5.1
